From patent US20200200775A1, “OXIDIZED LIPIDS AS BIOMARKERS FOR NEUROPATHIC PAIN” (Fraunhofer-Gesellschaft zur Förderung der angewandten …, priority 2017, published 2020)

How the values were obtained:
[1] = LC-MS/MS lipid profiling in mouse models of chemotherapy-induced peripheral neuropathic pain; conditions: for concentrations of 9,10-EpOME: various pain relevant tissues and plasma following paclitaxel (6 mg/kg i.p.) or oxaliplatin (3 mg/kg i.p.) treatment, measurable as early as 24 hours after injection; for concentrations of 9-HODE / concentrations of 13-HODE: various pain relevant tissues and plasma following paclitaxel or oxaliplatin treatment
Protocol: For all behavioral experiments, only 6-12 weeks old male C57BL/6N mice were used and purchased from commercial breeding companies (Charles River, Sulzfeld, Germany, Janvier, Le Geneset-Saint-Isle, FR). To compare mechanical thresholds, age and sex matched littermates were used as control.
Paclitaxel was dissolved in Cremophor EL/Ethanol 1:1 and diluted in saline. The dose for intraperitoneal injection was set to 6 mg/kg as described previously [4]. Oxaliplatin was dissolved in saline. The dose for intraperitoneal injection was set to 3 mg/kg as described previously [5].
For the measurement of epoxy lipids and HETEs stock solutions of the analytes 9,10-EpOME, 9-HODE, 13-HODE, 12-HETE and 15-HETE and internal standards 9,10-EpOME-d4, 9-HODE-d4, 13-HODE-d4, 12-HETE-d4 and 15-HETE-d4 are generated with concentrations of 2500 ng/ml in ethanol. Working standards were obtained by further dilution with a concentration range of 0.1-250 ng/ml for all analytes.
For prostanoids, stock solutions with 50,000 ng/ml of all analytes (6-keto-PGF1α) and internal standards (6-keto-PGF1α-d4) were prepared in methanol.
Lipids are extracted twice with 600 μl of ethyl acetate using liquid-liquid extraction. The combined organic phases were removed at a temperature of 45° C. under a gentle stream of nitrogen. The residues were reconstituted with 50 μl of methanol/water/butylated hydroxytoluene (BHT) (50:50:10^−3, v/v/v) (EpOMEs, HODEs and HETEs), or 50 μl of acetonitrile/water/formic acid (20:80:0.0025, v/v/v) (6-keto-PGF1α) and then centrifuged for 2 min at 10,000 g, and transferred to glass vials waiting for analysis.
The LC-MS/MS system consists of a QTrap 5500 (AB Sciex, Darmstadt, Germany) equipped with a Turbo-V source operating in negative electrospray ionization mode, an Agilent 1200 binary HPLC pump and degasser (Agilent, Waldbronn, Germany), and an HTC Pal autosampler (CTC analytics, Zwingen, Switzerland). High-purity nitrogen for the mass spectrometer was produced by a NGM 22-LC-MS nitrogen generator (cmc Instruments, Eschborn, Germany).
For the chromatographic separation of EpOMEs, HODEs and HETEs, a Gemini NX C18 column and precolumn were used (150×2 mm inner diameter, 5 μm particle size, and 110 Å pore size; Phenomenex, Aschaffenburg, Germany). For the chromatographic separation of prostanoids, a Synergi 4 u Hydro-RP column (150×2 mm inner diameter, 4 μm, Phenomenex, Aschaffenburg, Germany) and a precolumn of same material were used.
Mobile phase A consist of water: ammonia (100:0.05, v/v), and mobile phase B of acetonitrile ammonia (100:0.05, v/v). The gradient changed from 85% A to 10% within 12 min. These conditions were held for 1 min.
For the chromatographic separation of prostanoids, a Synergi 4 u Hydro-RP column (150×2 mm inner diameter, 4 μm, Phenomenex, Aschaffenburg, Germany) and a precolumn of same material were used.

[2] = Plasma concentrations of 9,10-EpOME and 9,10-DiHOME after paclitaxel treatment, with telmisartan administration; type: in vivo, mice; conditions: 8 d after paclitaxel-treatment (6 mg/kg); telmisartan 10 mg/kg, 2 h
Protocol: FIG. 4: Plasma-concentrations of 9,10-EpoME and its Metabolite 9,10-DiHOME 8d after paclitaxel-treatment (6 mg/kg) can be reduced by administration of telmisartan (10 mg/kg, 2h). Data are shown as mean±SEM from five mice per group; one-way ANOVA, *p<0.05.
Oxaliplatin was dissolved in saline.
These conditions were held for 1 min.
Ratios of analyte peak area and internal standard area.

[3] = pain relevant tissues, FIG. 2: 8 d after i.p. paclitaxel (6 mg/kg)

Row | Compound | concentrations of 9,10-EpOME [1] | concentrations of 9-HODE [1] | concentrations of 13-HODE [1] | concentrations of 12-HETE [1, 3] | concentrations of 15-HETE [1, 3] | concentrations of 6-keto-Prostaglandin-F1α ([1]; pain relevant tissues, FIG. 2: 8 d after multiple i.p. paclitaxel (4×2 mg/kg, every other day)) | Plasma-concentrations of 9,10-DiHOME [2] | Plasma-concentrations of 9,10-EpOME [2]
1 | O=C1[O][Pt]2([NH][C@@H]3CCCC[C@H]3[NH]2)[O]C1=O [oxaliplatin] | elevated | elevated | elevated |  |  |  |  | 
2 | CC(=O)O[C@H]1C(=O)[C@@]2(C)[C@H]([C@H](OC(=O)c3ccccc3)[C@]3(O)C[C@H](OC(=O)[C@H](O)[C@@H](NC(=O)c4ccccc4)c4ccccc4)C(C)=C1C3(C)C)[C@]1(OC(C)=O)CO[C@@H]1C[C@@H]2O [paclitaxel] | elevated | elevated | elevated | decreased | decreased | decreased |  | 
3 | CCCc1nc2c(C)cc(-c3nc4ccccc4n3C)cc2n1Cc1ccc(-c2ccccc2C(=O)O)cc1 [telmisartan] |  |  |  |  |  |  | reduced | reduced
